This series can be described thus: Pharmacokinetic evaluation in mouse plasma after oral gavage. The settings on record: 30 mg/kg oral, based on mean concentrations. In kind it is in vivo. On the procedure: MJK2134025 and GLPG 1690 were each administered as wet milled aqueous micro-suspensions at a concentration of 3 mg/g in 1% carboxymethyl cellulose and 0.5% Tween 80. Dosing of the formulations was performed at 10.0 g/kg body weight, corresponding to 30 mg/kg body weight. The food intake was measured (FIG. 19).
Prior blood collection, minicollect K3 EDTA vials were opened at room temperature to dry the EDTA in order to avoid blood dilution by the fluid content. Following oral gavage of the test formulations tail vein blood samples were taken at 15 min, 30 min, 1 h, 2 h, 4 h and 8 h. Samples were collected in dried minicollect K3 EDTA plasma vials. The blood samples (20-25 μl) were mixed and immediately cooled to 4° C. Subsequently, the samples were centrifuged at 3000 g for 5-10 min. Supernatants were collected in Eppendorf tubes and frozen and stored at −80° C. until further processing.
MJK2134025 and GLPG1690 were quantified in mouse plasma samples by LC-MS. Frozen mouse plasma samples were thawed on ice. Samples were then precipitated at a ratio of 1:10 (v:v) with 5 ng mL^−1 17:0 LPA in methanol (as an internal standard) in a 1.5 mL Eppendorf tube with microinsert (clear glass, flat bottom, 0.2 mL, 31×6 mm, LABSOLUTE, Germany). The Eppendorf tubes were mixed for 2 minutes at 4° C. and 1600 rpm in a Thermomixer C (Eppendorf, Germany). The Eppendorf tubes were centrifuged at 4° C. and 16.1 rcf for 2 minutes. The supernatant was transferred to HPLC vials for UHPLC-HRMS measurements as described in the following section. Calibration standards of MJK2134025 and GLPG1690 were prepared by adding the reference substances of MJK2134025 and GLPG1690 to blank samples (mouse plasma without substance). The calibration curve was generated at 7 concentrations and with a weighting of 1/×. The following concentrations were used for the stock solutions: 0.1, 0.5, 1, 2.5, 10, 50 and 200 μg·mL^−1 in methanol. To prepare the 200 μg·mL^−1 stock solution, 0.04 mL of 1 mg·mL^−1 MJK2134025 and 0.04 mL of 1 mg·mL^−1 GLPG1690 were mixed with 0.12 mL methanol. These stock solutions (5 μL each) were added to the blank plasma (45 μL). The sample was then mixed for 2 minutes at 4° C. and 1600 rpm in Thermomixer C (Eppendorf, Germany). Subsequent sample processing was the same as for the samples quantified. All quantifications should be considered as preliminary estimates as stable isotope-labeled reference substances were not available and individual matrix effects cannot be excluded.
All processed plasma samples were analyzed with a Vanquish Horizon UHPLC system (Thermo Fisher Scientific, Bremen, Germany) coupled to a Thermo Scientific QExactive HF-X Orbitrap mass spectrometer (Thermo Fisher Scientific, Bremen, Germany) using a UHPLC column (Luna R Omega 1.6 μm C18 100 Å, 100*2.1 mm). A solution of 5 mM ammonium formate in water containing 0.1% formic acid (eluent A) and a 5 mM solution of ammonium formate in acetonitrile: H2O (95:5, % v:v) containing 0.1% formic acid (eluent B) were used as the mobile phase. A flow rate of 0.3 mL/min was used under the following gradient conditions: 30% eluent B for 1 minute, then linear increase to 98% in 14 minutes, holding 98% of eluent B for 5 minutes, and then decreasing to 30% in 0.5 minutes, followed by isocratic holding for 3.5 minutes. The column temperature was maintained at 25° C. Samples were kept at 4° C., and 8 μL was injected into the UHPLC-MS. The QExactive HF-X Orbitrap was acquired at a resolution of 60000 at full half-width and in both positive and negative modes. The following HESI source parameters were used: capillary voltage of 3.8 kV (negative mode) and 3.5 kV (positive mode), capillary temperature of 320° C., funnel RF level 40, sheath gas pressure 49 (N2>95%), auxiliary gas 10 (N2>95%), auxiliary gas heater temperature 300° C. The automatic gain control (AGC) was set to 10E+6. A scan range of m/z 400 to 600 was selected, and the injection time was set to 200 ms. […]

The AUC is the area under the concentration-time curve, a measure of exposure. Read a high AUC as more exposure. Usually Cmax stands for the highest concentration seen after dosing. As usually defined, the Tmax is the time from dosing to the highest level. As to `O=C(OCc1cc(C(F)(F)F)cc(C(F)(F)F)c1)N1CCN(CCS(=O)(=O)c2ccc3nn[nH]c3c2)CC1` [MJK2134025, 3,5-bis(trifluoromethyl)benzyl 4-(2-((1H-benzo[d][1,2,3]triazol-6-yl)sulfonyl)ethyl)piperazine-1-carboxylate], the AUC came to 303 µg·h/mL, the highest level (Cmax) was 56.4 µg/mL and the Tmax was 2 h.

The values are drawn from patent US20240391903A1, “AUTOTAXIN-INHIBITORS” (UNIVERSITAET MUENSTER, priority 2021, published 2024).
